Results as given in PubChem BioAssay AID1963842 (Molecular Pharmacology Branch, DTP, NCI, 2024).

System: 677734-321-R-J1-PDC complex spheroid viability
Test: Anticancer human tumor 677734-321-R-J1-PDC patient-derived soft tissue sarcoma cell line growth inhibition [POLQ]
Details: for IC50: curve of first compound; for viability, T/C: stronger effect = lower value
Description: Multicellular complex tumor spheroid response to Polymerase (POL) inhibitors (novobiocin, ART-558, RP6685) in combination with a variety of drugs and investigational agents in selected tumor cell lines
The POL inhibitors (novobiocin, ART-558, and RP6685) were evaluated both individually and in combination with standard of care and investigational anticancer small molecules within a complex spheroid model of solid tumors. . Complex spheroids include a stromal component modeled by human endothelial cells (HUVEC) and fibroblasts modeled by human mesenchymal stem cells (MSCs). The concentration ranges selected for each drug and investigational agent were based upon clinically achievable concentrations if the clinical Cmax of the agent was known.
Compounds. The drugs and investigational agents: novobiocin (NSC847541), ART-558 (NSC835418), RP-6685 (NSC848927), peposertib (NSC802822), ceralasertib (NSC780249), elimusertib (NSC800525), camonsertib (NSC841442), AZD-1390 (NSC803789), olaparib (NSC753686), talazoparib (NSC767125), rucaparib (NSC756644), sotorasib (NSC818433), MRTX-1133 (NSC836407), SN-38 (NSC673596), topotecan (NSC609699), epotoside (NSC141540), doxorubicin (NSC123127), gemcitabine (NSC613327), 5-fluorouracil (NSC19893), paclitaxel (NSC125973), vemurafenib (NSC761431), MSA-2 (NSC828583), SN-011 (NSC837082), adavosertib (NSC754352), prexasertib (NSC758257), carboplatin (NSC241240) and oxaliplatin (NSC266046), were obtained from the National Cancer Institute (NCI) Developmental Therapeutics Program Chemical Repository (21). The FDA-approved anticancer drug set is available from the Developmental Therapeutics Program at https://dtp.cancer.gov/organization/dscb/obtaining/. […] The stock solutions were prepared in dimethyl sulfoxide (DMSO, Sigma-Aldrich, St. Louis, MO, cat. D2650), except for the platinum compounds which were prepared in saline (Quality Biological, Gaithersburg, MD, cat. 114-055-101), at 800-fold the tested concentration and stored at -70 degrees C prior to their use. All drugs and investigational agents were tested over a range starting from a high concentration at or near the clinical Cmax and decreasing in half-log increments. If the clinical Cmax for an agent had not been determined, the highest concentration tested was 10 microM, except for SN-38, which was tested at a high concentration of 1 microM.
Cell Culture. All cells were maintained in an incubator at 37 degrees C and 5% CO2 with 95% humidity. The PDC lines were cultured according to standard operating procedures established by the NCI PDMR (https://pdmr.cancer.gov). Table 3 of the manuscript, lists the cell lines along with the number of the three cell types plated to form the mct-spheroids and media for tumor cell growth. After thawing, all PDC lines, except 997537-175-T-J1-PDC and 415267-285-R-J2-PDC, were cultured in Matrigel-coated flasks prepared with a working solution of 1X Ham's F-12 nutrient mix, without supplementation (Thermo Fisher Scientific, cat. 11765054), 100 U/mL penicillin-streptomycin (Thermo Fisher Scientific, cat. 15140122), and 2.5% Matrigel (Corning Inc., Corning, NY, cat. 354248) for the first three passages. The two PDC lines 997537-175-T-J1-PDC and 415267-285-R-J2-PDC were cultured on uncoated flasks. The 857933-349-R-J2-PDC line was cultured in 6C/Colon 1B media containing advanced DMEM/F-12 (Thermo Fisher Scientific, cat. 12634028), 10 mM HEPES (Thermo Fisher Scientific, cat. 15630080), 1X GlutaMAX supplement (Thermo Fisher Scientific, cat. 35050061), 0.1 mg/mL primocin (InvivoGen, San Diego, CA, cat. ant-pm-2), 10% defined fetal bovine serum, heat inactivated (HyClone Laboratories Inc., Logan, UT, cat. SH30070.03HI), 50% L-WRN conditioned media (ATCC, cat. CRL-3276), 1.25 mM N-Acetyl-L-cysteine (Sigma-Aldrich, cat. A9165), 10 mM nicotinamide (Sigma-Aldrich, cat. N0636), 1X B-27 supplement (Thermo Fisher Scientific, cat. 17504044), 1X N-2 supplement (Thermo Fisher Scientific, cat. […]

[1] = second compound 0.0316 µM, first compound 0.0316 µM
[2] = second compound 0.0316 µM, first compound 0.1 µM
[3] = second compound 0.0316 µM, first compound 0.316 µM
[4] = second compound 0.0316 µM, first compound 1 µM
[5] = second compound 0.1 µM, first compound 0.0316 µM
[6] = second compound 0.1 µM, first compound 0.1 µM
[7] = second compound 0.1 µM, first compound 0.316 µM
[8] = second compound 0.1 µM, first compound 1 µM
[9] = second compound 0.316 µM, first compound 0.0316 µM
[10] = second compound 0.316 µM, first compound 0.1 µM
[11] = second compound 0.316 µM, first compound 0.316 µM
[12] = second compound 0.316 µM, first compound 1 µM
[13] = second compound 1 µM, first compound 0.0316 µM
[14] = second compound 1 µM, first compound 0.1 µM
[15] = second compound 1 µM, first compound 0.316 µM
[16] = second compound 1 µM, first compound 1 µM
[17] = second compound 3.16 µM, first compound 0.0316 µM
[18] = second compound 3.16 µM, first compound 0.1 µM
[19] = second compound 3.16 µM, first compound 0.316 µM
[20] = second compound 3.16 µM, first compound 1 µM
[21] = second compound 10 µM, first compound 0.0316 µM
[22] = second compound 10 µM, first compound 0.1 µM
[23] = second compound 10 µM, first compound 0.316 µM
[24] = second compound 10 µM, first compound 1 µM
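Also: spheroids exposed to compounds for one week.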
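For viability, T/C in this document: 100% = vehicle DMSO treated spheroids.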

SMILES: C=CCn1c(=O)c2cnc(Nc3ccc(N4CCN(C)CC4)cc3)nc2n1-c1cccc(C(C)(C)O)n1 + COC1C(OC(N)=O)C(O)C(Oc2ccc3c(O)c(NC(=O)c4ccc(O)c(CC=C(C)C)c4)c(=O)oc3c2C)OC1(C)C
- IC50 (second compound 0.0316 µM): > 1 µM
- IC50 (second compound 0.1 µM): > 1 µM
- IC50 (second compound 0.316 µM): > 1 µM
- IC50 (second compound 1 µM): > 1 µM
- IC50 (second compound 3.16 µM): > 1 µM
- IC50 (second compound 10 µM): > 1 µM
- viability, T/C (second compound 0.0316 µM, first compound 0.00316 µM): 110%
- viability, T/C (second compound 0.0316 µM, first compound 0.01 µM): 93.9%
- viability, T/C [1]: 101%
- viability, T/C [2]: 102%
- viability, T/C [3]: 104%
- viability, T/C [4]: 61.6%
- viability, T/C (second compound 0.1 µM, first compound 0.00316 µM): 105%
- viability, T/C (second compound 0.1 µM, first compound 0.01 µM): 106%
- viability, T/C [5]: 101%
- viability, T/C [6]: 99.3%
- viability, T/C [7]: 104%
- viability, T/C [8]: 72.4%
- viability, T/C (second compound 0.316 µM, first compound 0.00316 µM): 119%
- viability, T/C (second compound 0.316 µM, first compound 0.01 µM): 105%
- viability, T/C [9]: 103%
- viability, T/C [10]: 111%
- viability, T/C [11]: 111%
- viability, T/C [12]: 70.2%
- viability, T/C (second compound 1 µM, first compound 0.00316 µM): 108%
- viability, T/C (second compound 1 µM, first compound 0.01 µM): 102%
- viability, T/C [13]: 104%
- viability, T/C [14]: 112%
- viability, T/C [15]: 107%
- viability, T/C [16]: 66.3%
- viability, T/C (second compound 3.16 µM, first compound 0.00316 µM): 101%
- viability, T/C (second compound 3.16 µM, first compound 0.01 µM): 103%
- viability, T/C [17]: 104%
- viability, T/C [18]: 115%
- viability, T/C [19]: 106%
- viability, T/C [20]: 69.8%
- viability, T/C (second compound 10 µM, first compound 0.00316 µM): 109%
- viability, T/C (second compound 10 µM, first compound 0.01 µM): 110%
- viability, T/C [21]: 102%
- viability, T/C [22]: 106%
- viability, T/C [23]: 105%
- viability, T/C [24]: 76%

SMILES: CCCS(=O)(=O)Nc1ccc(F)c(C(=O)c2c[nH]c3ncc(-c4ccc(Cl)cc4)cc23)c1F + COC1C(OC(N)=O)C(O)C(Oc2ccc3c(O)c(NC(=O)c4ccc(O)c(CC=C(C)C)c4)c(=O)oc3c2C)OC1(C)C
- IC50 (second compound 0.0316 µM): 6.53 µM
- IC50 (second compound 0.1 µM): 6.39 µM
- IC50 (second compound 0.316 µM): 6.59 µM
- IC50 (second compound 1 µM): 6.51 µM
- IC50 (second compound 3.16 µM): 6.73 µM
- IC50 (second compound 10 µM): 6.49 µM
- viability, T/C [1]: 103%
- viability, T/C [2]: 109%
- viability, T/C [3]: 101%
- viability, T/C [4]: 118%
- viability, T/C (second compound 0.0316 µM, first compound 3.16 µM): 106%
- viability, T/C (second compound 0.0316 µM, first compound 10 µM): 16.7%
- viability, T/C [5]: 108%
- viability, T/C [6]: 107%
- viability, T/C [7]: 104%
- viability, T/C [8]: 120%
- viability, T/C (second compound 0.1 µM, first compound 3.16 µM): 104%
- viability, T/C (second compound 0.1 µM, first compound 10 µM): 15.3%
- viability, T/C [9]: 105%
- viability, T/C [10]: 110%
- viability, T/C [11]: 109%
- viability, T/C [12]: 110%
- viability, T/C (second compound 0.316 µM, first compound 3.16 µM): 109%
- viability, T/C (second compound 0.316 µM, first compound 10 µM): 16.6%
- viability, T/C [13]: 103%
- viability, T/C [14]: 107%
- viability, T/C [15]: 101%
- viability, T/C [16]: 112%
- viability, T/C (second compound 1 µM, first compound 3.16 µM): 109%
- viability, T/C (second compound 1 µM, first compound 10 µM): 16.5%
- viability, T/C [17]: 106%
- viability, T/C [18]: 101%
- viability, T/C [19]: 111%
- viability, T/C [20]: 112%
- viability, T/C (second compound 3.16 µM, first compound 3.16 µM): 112%
- viability, T/C (second compound 3.16 µM, first compound 10 µM): 19.3%
- viability, T/C [21]: 107%
- viability, T/C [22]: 104%
- viability, T/C [23]: 109%
- viability, T/C [24]: 105%
- viability, T/C (second compound 10 µM, first compound 3.16 µM): 105%
- viability, T/C (second compound 10 µM, first compound 10 µM): 17.2%
